Assay results from patent US11065227B2, “Use of cannabinoids in the treatment of multiple myeloma” (GW Research Limited, priority 2016, dated 2021).
Like-named read-outs stand apart in the source and are kept apart here.

Assays:
U266 cell line [1] = test: MTT cell viability assay, U266; conditions: Homo sapiens
Procedure: (§1) U266 and RPM18226 (RPMI) MM cell lines were purchased from ATCC (LGC Standards, Milan, IT). Cell authentication was performed by IST (Genova, Italy). Cell lines were cultured in RPMI1640 medium (Lonza, Milan, IT) supplemented with 10% foetal bovine serum (FBS), 2 mM L-glutamine, 100 IU/ml penicillin, 100 μg/ml streptomycin and 1 mM sodium pyruvate. Cell lines were maintained at 37° C. with 5% CO2 and 95% humidity.
(§2) U266 and RPMI cell lines (4×10^4 cells/ml) were seeded in 96-well plates, in a final volume of 100 μl/well. After 1 day of incubation, compounds or vehicles were added. At least four replicates were used for each treatment.
(§3) At the indicated time point, cell viability was assessed by adding 0.8 mg/ml of 3-[4,5-dimethylthiazol-2-yl]-2,5 diphenyl tetrazolium bromide (MTT) (Sigma Aldrich) to the media. […]
(§4) The absorbance of the samples against a background control (medium alone) was measured at 570 nm using an ELISA reader microliter plate (BioTek Instruments, Winooski, Vt., USA). Synergistic activity of the THC-CBD combinations was determined by the isobologram and combination index (CI) methods (CompuSyn Software, ComboSyn, Inc. Paramus, N J 2007). The CI was used to express synergism (CI<1), additivity (CI=1) or antagonism (CI>1) and was calculated according to the standard isobologram equation (Chou, 2006).

RPMI cell line [2] = test: MTT cell viability assay, RPMI
Procedure: as §1, §2, §3, §4

U266 and RPMI cell lines [3] = test: MTT cell viability assay, statements for both MM cell lines; conditions: for CB2 receptor dependence of cytotoxic effect: pre-treatment with 20 μM AM630 (CB2 antagonist), FIG. 2
Procedure: as §1, §2
At the indicated time point, cell viability was assessed by adding 0.8 mg/ml of 3-[4,5-dimethylthiazol-2-yl]-2,5 diphenyl tetrazolium bromide (MTT) (Sigma Aldrich) to the media. After 3 h, the plates were centrifuged, the supernatant was removed, and the pellet was solubilized with 100 μl/well DMSO.
as §4

[4] = test system: LC3-II/LC3-1 and p62 in U266 and RPMI cell lines; test: Western blot of autophagy markers LC3 and p62; assay type: cell-based; conditions: 12.5 μM; 24 h of treatment; FIG. 4A
Procedure: (§5) U266 and RPMI cell lines were lysed in buffer containing protease inhibitor cocktail (Sigma Aldrich). Lysates were resolved by sodium dodecyl sulphate polyacrylamide gel (8-14%) and transferred onto Hybond-C extra membranes (GE Healthcare, Munich, Germany). Non-specific binding sites were blocked with 5% low-fat dry milk in phosphate-buffered saline 0.1% Tween 20 for 1 h.
(§6) Blots were incubated with the primary Abs: anti-iβ5 subunit (1:1000, Cell Signalling, Denver, Colo., USA), rabbit anti-LC3 (2 μg/ml, Novus Biologicals, Littleton, Colo., USA), rabbit anti-caspase-3 (1:1000, Cell Signalling), rabbit anti-p62 (1:1000, Cell Signalling), rabbit anti-H2AX (1:1000, Cell Signalling) and mouse anti-glyceraldehydes-3-phosphate dehydrogenase (GAPDH, 1:3000, OriGene, Rockville, Md., USA) Abs overnight and then incubated with their respective HRP-conjugated anti-mouse and anti-rabbit (1:2000, Cell Signalling) Abs for 1 h. The detection was performed using the LiteAblot PLUS or the LiteAblot TURBO (EuroClone, Milano, Italy) kits, and densitometric analysis was carried out by a Chemidoc using the Quantity One software (Bio-Rad, Hercules, Calif., USA).
These experiments investigated if the increase in sub-G1 cell accumulation by THC-CBD combination treatment was due to an autophagic-cell death process. […]

[5] = test system: γ-H2AX (H2AX) in U266 and RPMI cell lines; test: Western blot of γ-H2AX; assay type: cell-based; conditions: 24 h post-treatments; both cell lines; FIG. 5C
Procedure: as §5, §6
The presence of γ-H2AX (H2AX), a phosphorylated variant of histone 2A that is associated with DNA double-strand breaks was investigated.

[6] = test system: β5i subunit in U266 and RPMI cell lines; test: β5i mRNA by qRT-PCR after IFN-γ; assay type: cell-based; conditions: after 24 h IFN-γ (100 U/ml); 12.5 μM; respect to IFN-γ alone; FIG. 6A
[7] = test system: β5i subunit in U266 and RPMI cell lines; test: β5i precursor and mature form by western blot after IFN-γ; assay type: cell-based; conditions: both cell lines, FIG. 6B
Procedure: as §5, §6
The potential role of the combination of THC-CBD in regulating the β5i subunit was investigated. U266 and RPMI cell lines were treated with CBD and THC, after 24 h exposure to IFN-γ (100 U/ml).

[8] = test system: CXCR4 and CD147 in U266 and RPMI cell lines; test: CXCR4 and CD147 expression by qRT-PCR; assay type: cell-based; conditions: alone and in combination; qRT-PCR and FACS; MM cell lines
U266 and RPMI cell lines [9] = test: Cell migration assay (SDF-1, eCyPA chemotaxis); assay type: cell-based; conditions: 24 h treatment; single and in combination; FIG. 8C
U266 cell line [10] = conditions: Morelli et al. 2014, read-out: IC50, reducing cell viability; cited from earlier work
RPMI cell line [11] = conditions: Morelli et al. 2014, read-out: IC50, reducing cell viability; cited from earlier work
U266 = conditions: Morelli et al. 2014; cited from earlier work
RPMI = conditions: Morelli et al. 2014; cited from earlier work
U266 and RPMI cell lines [12] = test: Cell cycle analysis by PI staining and FACS, both MM cell lines; assay type: cell-based; conditions: 12.5 μM, vs control, FIG. 3

Structure (SMILES)	cytotoxicity at 12.5 µM (U266 cell line [1]; U-266, read-out: decrease in cell viability) [%]	cytotoxicity at 12.5 µM (RPMI cell line [2]; read-out: decrease in cell viability) [%]	cytotoxic effects after pre-treatment with BAF1 (U266 and RPMI cell lines [3])	CB2 receptor dependence of cytotoxic effect (U266 and RPMI cell lines [3])	LC3-II/LC3-1 ratio [4]	levels of the phosphorylated form of H2AX [5]	β5i expression level (mRNA) induced by IFN-γ [6]	expression of precursor and mature form of β5i (protein) [7]	expression of CXCR4 and CD147 chemotactic receptors [8]	SDF-1-, eCyPA- and SDF-1/eCyPA-mediated chemotaxis compared with vehicle-treated cells (U266 and RPMI cell lines [9])	IC50 (U266 cell line [10]) [µM]	IC50 (RPMI cell line [11]) [µM]	blocking cell cycle in GO/G1 phase (U266) [%]	blocking cell cycle in GO/G1 phase (RPMI) [%]	cell viability (U266 and RPMI cell lines [3]; presence or absence of IFN-γ, 72 h post-treatment, data not shown)	IC50 (U266 cell line [1]; U-266, 72 h, read-out: IC50, cell viability) [µM]	IC50 (RPMI cell line [2]; 72 h, read-out: IC50, cell viability) [µM]	accumulation in sub-G1 phase (hypodiploid DNA) (U266 and RPMI cell lines [12]; 48 h post-treatment)	cell accumulation in G1 phase (U266 and RPMI cell lines [12]; starting from 24 h post-treatment)
C=C(C)[C@@H]1CCC(C)=C[C@H]1c1c(O)cc(CCCCC)cc1O [CBD, Cannabidiol]	20	20	reversed	not CB2 receptors dependent	slight increase	increase levels	low effects	low efficacy	reduce the expression	reduced	19.8	22.4	38	42	–	–	–	–	–
CC(C)C[C@H](NC(=O)[C@H](CCc1ccccc1)NC(=O)CN1CCOCC1)C(=O)N[C@@H](Cc1ccccc1)C(=O)N[C@@H](CC(C)C)C(=O)[C@@]1(C)CO1 [CFZ, carfilzomib]	–	–	–	–	–	–	–	–	reduce the expression	reduced	–	–	–	–	reduced cell viability	–	–	–	–
CCCCCc1cc(O)c2c(c1)OC(C)(C)[C@@H]1CCC(C)=C[C@@H]21 [THC, Tetrahydrocannabinol]	–	–	–	not CB2 receptors dependent	no effect	increase levels	low effects	low efficacy	reduce the expression	reduced	–	–	–	–	–	39.5	30.8	accumulation in sub-G1 phase	induce cell accumulation in G1 phase
